Results from US6841565B1, “Treatment of patients with chronic lymphocytic leukemia” (The Ohio State University, priority 2002, dated 2005).
Where two headings read alike, the source gives them in different places.

Legend:
human tumor cell lines = details: A. Saito, et al., 1999; cited from earlier work
B-CLL cells [1] = assay: cells; format: cell-based; details: Homo sapiens, read-out: LC50
Procedure: FIG. 1. LC50 determination of MS-275 in primary B-CLL cells. Peripheral blood mononuclear cells (PBMCs) from thirteen individual B-CLL patients were isolated and incubated with varying concentrations of MS-275 from 0.01 to 100 uM. A. Cells were incubated in drug for 4 hours and were then washed and re-incubated in fresh media for a total of 96 hours. B. Cells were incubated in drug for 96 hours continuously. Viability was determined by an MTT assay to detect metabolic activity. Each patient sample at each concentration was run in quadruplicate and was normalized to cells from the same patient incubated for the same time period in media alone. Error bars represent 95% confidence intervals. […]
In order to accurately represent the in vivo situation where drug is eliminated from the bloodstream, 1×10^6 PBMCs from B-CLL patients or healthy volunteers, isolated as described in Example 1, were incubated in various concentrations of MS-275 in RPMI 1640 with 10% heat-inactivated fetal bovine serum for 4, 24 or 96 hours at 37° C. in 96-well plates. […] Viability of the cells was then analyzed using the MTT assay. […] To use the MTT assay, MTT reagent was added and the cells were incubated for an additional 24 hours before washing and analysis of purple formazan formation by spectrophotometry in a Labsystems 96-well plate reader. […]

caspases 8 and 9 = assay: Caspase activation, caspases 8 and 9; format: cell-based, human; details: B-CLL cells treated with MS-275, other studies
Procedure: (§1) To determine the role and identity of caspases involved in MS-275-induced apoptosis, B-CLL cells, isolated as described in Example 1, were treated with MS-275 and analyzed for caspase activation by colorimetric assay. […] Cleavage of the protein BID, a known substrate of caspase 8, was also shown.

caspase 3 = assay: Caspase activation colorimetric assay, caspase 3; format: cell-based, human; details: B-CLL cells, 0.3 or 3.0 μM MS-275, 24 hours
Procedure: as §1, with “FIG. 4. […] B-CLL patient cells were incubated with 0.3 or 3.0 μM MS-275 for 24 hours. At these time points, lysates were prepared from the cells and caspase 3 activity in the lysates was measured using a colorimetric assay. To” for “To”

histone deacetylases = assay: Histone acetylation in B-CLL cells by immunoblotting; format: cell-based, human
Procedure: FIG. 2. MS-275 induced acetylation of histone proteins. PBMCs from two different B-CLL patients (Patient No. 1 and 2) were collected and incubated with 0, 0.3, or 3.0 μM MS-275 for 24 hours. Nuclear extracts were prepared from the cells and were separated by SDS-polyacrylamide gel electrophoresis before immunoblotting with antibodies immunospecific for acetylated forms of H3 or H4 histones. Coomassie blue staining was used to control for protein amount loaded onto the SDS polyacrylamide gels.
Antibodies immunospecific for specific acetylated lysine residues at the N terminus of histone H4 (i.e., K5, K8, K12 and K16) were also used. For immunoblotting, whole cell lysates were prepared from the cells using standard procedures. Protein samples were separated along with molecular weight markers (BioRad) on 10 to 14% SDS-polyacrylamide gels. Proteins in the gels were transferred using a semidry apparatus (BioRad) onto nitrocellulose membranes (Schleicher and Schuell, Keene, N.H.). Gel loading equivalence was confirmed by Ponceau S stain (Sigma) of membranes and by probing with a monoclonal antibody for GAPDH. Blots were developed with chemiluminescent substrate (Pierce Super-Signal, Pierce Biotechnology, Rockford, Ill.) and autoradiography was performed with X-OMAT film (Kodak, Rochester, N.Y.). Protein bands were digitally quantified using a ChemiDoc instrument (BioRad).

B-CLL cells [2] = assay: Annexin V/propidium iodide flow cytometric apoptosis assay; format: cell-based, human
Procedure: FIG. 3. […] B-CLL patient cells were incubated with 0, 0.3, or 3.0 μM MS-275 for 24 hours. Apoptosis was assessed by annexin V/propidium iodide flow cytometry. To determine whether MS-275-treated B-CLL cells were undergoing apoptosis, an annexin V/propidium iodide flow cytometric assay was used to analyze the B-CLL cells, isolated as described in Example 1, from four different patients. Staining of cells for annexin V is an early indicator of initiation of apoptosis. Staining of cells with propidium iodide is an indicator that cells are no longer viable and, therefore, that apoptosis has actually occurred (i.e., integrity of cell membrane has been breached). To perform the assay, cells were exposed to various concentrations of MS-275 for 4 hours. Then, the cells were washed, resuspended in complete medium and incubated for 24 or 48 hours in absence of MS-275. At these times, cells were washed with PBS and resuspended in binding buffer containing annexin V-FITC and propidium iodide (BD Pharmingen, San Diego, Calif.). After 15 minutes of incubation in the dark at room temperature, apoptosis was assessed by flow cytometry on a Coulter EPICS-XL flow cytometer. […] The results were similar in the other three patients.

1D10 antigen = 1D10 antigen levels on B-CLL cells by immunofluorescence flow cytometry; format: cell-based, human; details: 3.0 μM MS-275, 24 hours
Procedure: Washed B-CLL cells, isolated as described in Example 1, from four different patients with B-CLL, were incubated at a concentration of 10^7 cells per ml in the presence or absence of 3.0 μM MS-275 for 24 hours, before being immunofluorescently stained with either non-specific antibody (unable to specifically bind to the cells) or antibody immunospecific for 1D10 antigen. All cells were also stained with an antibody immunospecific for CD19 (recognizing B cells). The cells were analyzed by flow cytometry. The mean fluorescence intensity due to 1D10 antigen staining of CD19-positive cells was recorded.

[3] = test system: cellular histone deacetylase activity; details: A. Saito, et al., 1999; cited from earlier work
in vitro = format: cell-based; details: human
Description: Peripheral blood mononuclear cells (PBMCs) were obtained from the B-CLL patients and were also obtained from healthy volunteers as controls. Peripheral blood was collected from the patients or volunteers using standard techniques (see for example, S. Bennett and S. N. Breit, 1994, Variables in the isolation and culture of human monocytes that are of particular relevance to studies of HIV, J. Leukoc. Biol. 56:236-40). PMBCs were isolated from the blood using standard density gradient centrifugation using Ficoll-Paque Plus (Pharmacia Biotech, Picsataway N.J.). After isolation, the PBMCs were washed in phosphate-buffered saline (PBS).
In order to accurately represent the in vivo situation where drug is eliminated from the bloodstream, 1×10^6 PBMCs from B-CLL patients or healthy volunteers, isolated as described in Example 1, were incubated in various concentrations of MS-275 in RPMI 1640 with 10% heat-inactivated fetal bovine serum for 4, 24 or 96 hours at 37° C. in 96-well plates. […] Viability of the cells was then analyzed using the MTT assay. […] To use the MTT assay, MTT reagent was added and the cells were incubated for an additional 24 hours before washing and analysis of purple formazan formation by spectrophotometry in a Labsystems 96-well plate reader. Data were plotted and values were calculated using GraphPad software (San Diego, Calif.).

[4] = Patient No. 1, 0.3 μM MS-275, 24 hours
[5] = Patient No. 1, 3.0 μM MS-275, 24 hours
[6] = Patient No. 2, 0.3 μM MS-275, 24 hours
[7] = Patient No. 2, 3.0 μM MS-275, 24 hours
[8] = Patient No. 1, CD19-positive B-CLL cells
[9] = Patient No. 2, CD19-positive B-CLL cells
[10] = Patient No. 3, CD19-positive B-CLL cells
[11] = Patient No. 4, CD19-positive B-CLL cells

Nc1ccccc1NC(=O)c1ccc(CNC(=O)OCc2cccnc2)cc1 [MS-275, N-(2-aminophenyl)-4-[N-(pyridin-3-yl-methoxycarbonyl)aminomethyl]benzamide]
growth in a variety of human tumor cell lines (human tumor cell lines): block growth | CC50 (B-CLL cells [1]; 96 h): 509 nM | CC50 (B-CLL cells [1]): 1210 nM | caspases 8 and 9 activation (caspases 8 and 9): activated to a lesser extent than caspase 3 | caspase 3 activation (caspase 3): induced activation of caspase 3 | Fold Increase in Histone Acetylation (Relative to Untreated), H3 Total (histone deacetylases; [4]): 1.3 fold | Fold Increase in Histone Acetylation (Relative to Untreated), H4 K5 (histone deacetylases; [4]): 2.7 fold | Fold Increase in Histone Acetylation (Relative to Untreated), H4 K8 (histone deacetylases; [4]): 1.6 fold | Fold Increase in Histone Acetylation (Relative to Untreated), H4 K12 (histone deacetylases; [4]): 4.4 fold | Fold Increase in Histone Acetylation (Relative to Untreated), H4 K16 (histone deacetylases; [4]): 3.7 fold | Fold Increase in Histone Acetylation (Relative to Untreated), H4 Total (histone deacetylases; [4]): 2.4 fold | Fold Increase in Histone Acetylation (Relative to Untreated), H3 Total (histone deacetylases; [5]): 2.3 fold | Fold Increase in Histone Acetylation (Relative to Untreated), H4 K5 (histone deacetylases; [5]): 8.9 fold | Fold Increase in Histone Acetylation (Relative to Untreated), H4 K8 (histone deacetylases; [5]): 1.9 fold | Fold Increase in Histone Acetylation (Relative to Untreated), H4 K12 (histone deacetylases; [5]): 15.8 fold | Fold Increase in Histone Acetylation (Relative to Untreated), H4 K16 (histone deacetylases; [5]): 9.1 fold | Fold Increase in Histone Acetylation (Relative to Untreated), H4 Total (histone deacetylases; [5]): 3.9 fold | Fold Increase in Histone Acetylation (Relative to Untreated), H3 Total (histone deacetylases; [6]): 1.5 fold | Fold Increase in Histone Acetylation (Relative to Untreated), H4 K5 (histone deacetylases; [6]): 2.6 fold | Fold Increase in Histone Acetylation (Relative to Untreated), H4 K8 (histone deacetylases; [6]): 4.4 fold | Fold Increase in Histone Acetylation (Relative to Untreated), H4 K12 (histone deacetylases; [6]): 5.1 fold | Fold Increase in Histone Acetylation (Relative to Untreated), H4 K16 (histone deacetylases; [6]): 3.1 fold | Fold Increase in Histone Acetylation (Relative to Untreated), H4 Total (histone deacetylases; [6]): 3.8 fold | Fold Increase in Histone Acetylation (Relative to Untreated), H3 Total (histone deacetylases; [7]): 3.1 fold | Fold Increase in Histone Acetylation (Relative to Untreated), H4 K5 (histone deacetylases; [7]): 4.5 fold | Fold Increase in Histone Acetylation (Relative to Untreated), H4 K8 (histone deacetylases; [7]): 4.8 fold | Fold Increase in Histone Acetylation (Relative to Untreated), H4 K12 (histone deacetylases; [7]): 10.3 fold | Fold Increase in Histone Acetylation (Relative to Untreated), H4 K16 (histone deacetylases; [7]): 4.7 fold | Fold Increase in Histone Acetylation (Relative to Untreated), H4 Total (histone deacetylases; [7]): 5.2 fold | apoptosis (annexin V/propidium iodide flow cytometry) (B-CLL cells [2]; 0.3 μM of MS-275, after 48 hours): apoptosis was detected after 48 hours | apoptosis (annexin V/propidium iodide flow cytometry) (B-CLL cells [2]; 3.0 μM of MS-275, within 24 hours, one representative patient): apoptosis was detected within 24 hours | effect of Bcl-2 expression on MS-275-induced apoptosis (B-CLL cells [2]; expression of the anti-apoptotic protein Bcl-2, other studies): inhibited by expression of the anti-apoptotic protein Bcl-2 | mean 1D10 fluorescence normalized to the staining control (1D10 antigen; [8]): 88 | mean 1D10 fluorescence of the cells (1D10 antigen; [8]): 104.11 | mean 1D10 fluorescence normalized to the staining control (1D10 antigen; [9]): 393 | mean 1D10 fluorescence of the cells (1D10 antigen; [9]): 463.23 | mean 1D10 fluorescence normalized to the staining control (1D10 antigen; [10]): 3252 | mean 1D10 fluorescence of the cells (1D10 antigen; [10]): 6438.03 | mean 1D10 fluorescence normalized to the staining control (1D10 antigen; [11]): 4158 | mean 1D10 fluorescence of the cells (1D10 antigen; [11]): 5446.76 | inhibition of cellular histone deacetylase activity [3]: inhibit cellular histone deacetylase activity | CC50 at 4 h (in vitro): ≥ 21100 nM | CC50 at 96 h (in vitro): ≥ 4750 nM
